One may read the MIC as the least concentration at which growth counts as inhibited.

These results are taken from ChEMBL document CHEMBL1821612, “Discovery of novel antitubercular 3a,4-dihydro-3H-indeno[1,2-c]pyrazole-2-carboxamide/carbothioamide analogues” (Bioorg Med Chem Lett, 2011).

The structures appear in SMILES notation. ≈ marks a conversion by molar mass, not a printed value. A value given as a limit tells only on which side of the number the result lay.

One test has as its system Mycobacterium tuberculosis. Put plainly: Ratio of isoniazid MIC to compound MIC for isoniazid-resistant Mycobacterium tuberculosis. Format: functional.
Settings: not given
As for `COc1cc2c(cc1OC)C1=NN(C(N)=S)C(c3ccc(F)cc3)C1C2` (stereo unspecified), the Ratio amounted to 2.

A further test relates to Mycobacterium tuberculosis. In words: Antimycobacterial activity against isoniazid-resistant Mycobacterium tuberculosis after 2 weeks by BACTEC 460 radiometric method. Format: functional. The conditions noted are these: 336 h.
In the case of `COc1cc2c(cc1OC)C1=NN(C(=O)Nc3ccc(C)cc3C)C(c3ccncc3)C1C2` (stereo unspecified), the MIC was greater than 12.5 µM.

For the compound `COc1cc2c(cc1OC)C1=NN(C(=O)Nc3ccc(C)cc3C)C(c3ccccc3Cl)C1C2` (stereo unspecified), it took 10 µM (≈ 4.76 µg/mL) to inhibit growth (MIC).

`COc1cc2c(cc1OC)C1=NN(C(=O)Nc3ccc(C)cc3C)C(c3ccc(F)cc3)C1C2` (stereo unspecified) displayed a minimum inhibitory concentration (MIC) of 12.5 µM (≈ 5.74 µg/mL).

The compound `COc1ccc(C2C3Cc4cc(OC)c(OC)cc4C3=NN2C(=O)Nc2ccc(C)cc2C)cc1OC` (stereo unspecified) came in with a minimum inhibitory concentration (MIC) greater than 12.5 µM.

For `COc1cc2c(cc1OC)C1=NN(C(=O)Nc3ccc(C)cc3C)C(c3ccccc3)C1C2` (stereo unspecified), the MIC is greater than 12.5 µM.

On to `COc1ccc(C2C3Cc4cc(OC)c(OC)cc4C3=NN2C(=O)Nc2ccc(C)cc2C)cc1` (stereo unspecified), for which the MIC was greater than 12.5 µM.

`COc1cc2c(cc1OC)C1=NN(C(=O)Nc3c(C)cccc3C)C(c3ccncc3)C1C2` (stereo unspecified): the MIC is greater than 12.5 µM.

`COc1cc2c(cc1OC)C1=NN(C(=O)Nc3c(C)cccc3C)C(c3ccccc3Cl)C1C2` (stereo unspecified): 12.5 µM (≈ 5.95 µg/mL) was the least that counted as inhibitory (MIC).

Compound `COc1cc2c(cc1OC)C1=NN(C(=O)Nc3c(C)cccc3C)C(c3ccc(F)cc3)C1C2` (stereo unspecified) displayed an MIC of 10 µM (≈ 4.6 µg/mL). This MIC and that of the compound before are within 1.5-fold of each other.

`COc1ccc(C2C3Cc4cc(OC)c(OC)cc4C3=NN2C(=O)Nc2c(C)cccc2C)cc1OC` (stereo unspecified) came in with an MIC greater than 12.5 µM.

For the compound `COc1cc2c(cc1OC)C1=NN(C(=O)Nc3c(C)cccc3C)C(c3ccccc3)C1C2` (stereo unspecified), the MIC is greater than 12.5 µM.

In turn, `COc1ccc(C2C3Cc4cc(OC)c(OC)cc4C3=NN2C(=O)Nc2c(C)cccc2C)cc1` (stereo unspecified) returned an MIC greater than 12.5 µM.

For `COc1cc2c(cc1OC)C1=NN(C(N)=S)C(c3ccncc3)C1C2` (stereo unspecified), the minimal inhibitory concentration (MIC) stood at 10 µM (≈ 3.54 µg/mL).

`COc1cc2c(cc1OC)C1=NN(C(N)=S)C(c3ccccc3Cl)C1C2` (stereo unspecified) gave an MIC of 10 µM (≈ 3.88 µg/mL).

`COc1cc2c(cc1OC)C1=NN(C(N)=S)C(c3ccc(F)cc3)C1C2` (stereo unspecified): the MIC was found to be 6.25 µM (≈ 2.32 µg/mL).

Turning to `COc1ccc(C2C3Cc4cc(OC)c(OC)cc4C3=NN2C(N)=S)cc1OC` (stereo unspecified), the minimal inhibitory concentration (MIC) worked out at 12.5 µM (≈ 5.17 µg/mL).

Compound `COc1cc2c(cc1OC)C1=NN(C(N)=S)C(c3ccccc3)C1C2` (stereo unspecified) registered an MIC of 12.5 µM (≈ 4.42 µg/mL).

On to `COc1ccc(C2C3Cc4cc(OC)c(OC)cc4C3=NN2C(N)=S)cc1` (stereo unspecified), for which the MIC is greater than 12.5 µM.

The compound `NNC(=O)c1ccncc1` [ISONIAZID] showed an MIC of 12.5 µM (≈ 1.71 µg/mL).

Regarding `CO[C@H]1/C=C/O[C@@]2(C)Oc3c(C)c(O)c4c(O)c(c(/C=N/N5CCN(C)CC5)c(O)c4c3C2=O)NC(=O)/C(C)=C\C=C\[C@H](C)[C@H](O)[C@@H](C)[C@@H](O)[C@@H](C)[C@H](OC(C)=O)[C@@H]1C` [RIFAMPIN], 3.12 µM (≈ 2.57 µg/mL) was the least that counted as inhibitory (MIC).
